Data: patent US9815831B2, “3,5-disubstituted-3H-imidazo[4,5-B]pyridine and 3,5-disubstituted-3H-[1,2,3]triazolo[4,5-B] pyridine compounds as modulators of c-Met protein kinases” (Rhizen Pharmaceuticals SA, priority 2012, dated 2017)
Read-outs that look alike come from different tables or passages of the source.

Columns and labels:
MKN-45 = assay: Inhibition of MKN-45 proliferation (MTT); assay type: cell-based, human; conditions: MKN-45 proliferation; for inhibition at 0.1 µM / GI50: Homo sapiens; for inhibition at 0.1 µM: read-out: MKN45 % inhibition @ 100 nM; for GI50: read-out: MKN45 GI50
Summary of the method: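 High-Met human gastric adenocarcinoma MKN-45 cells plated on day 1 and exposed to compound from day 2. Viability measured by MTT dye reduction on day 5; output given as % inhibition at 100 nM and GI50.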

c-Met kinase [1] = biological target: T1, c-Met kinase (Homo sapiens, UniProt P08581); assay: Inhibition of c-Met kinase phosphorylation in NCI-H441 cells (cell based ELISA); conditions: Table 5, 1 h incubation
Experimental: 5. Inhibition of c-Met Kinase Phosphorylation in NCI-H441 Cells:
Inhibition of Met phosphorylation was determined using a cell based ELISA assay according to the following schedule: • Day 1: NCI-H441 cells were plated in 96-well plates in complete growth medium. • Day 2: Inhibitors at the desired concentration were added to the plates, incubated for 1 h and lysed subsequently. Lysates were transferred to NUNC Maxisorp plates coated with anti-cMet receptor antibody. Phopho-tyrosine mAb and HRP-lined anti-mouse IgG were used as primary and secondary antibodies respectively. Optical density was measured on a microplate reader (BMG Labtech., Germany) at […]. […] Results: The results are given below in Table 5 as IC50 values.

Akt [2] = assay: Inhibition of Akt phosphorylation in MKN-45 cells (Western blot); assay type: cell-based; conditions: Homo sapiens, Table 6, 0-1000 nM
Experimental: (§1) 6. Inhibition of Akt Phosphorylation in MKN-45 or NCI-H441 Cells:
(§2) Akt is a serine-threonine kinase and a downstream marker regulated by c-Met kinase via the PI3K pathway. Once phosphorylated, Akt regulates several end processes including cell survival and growth. Cells were treated with 0-1000 nM of test compounds, lysed, and the proteins separated on a 10% SDS-PAGE. Following separation, proteins were transferred onto a nitrocellulose membrane and detected by chemiluminescence after incubation with […] (primary) and rabbit anti-mouse Ab (secondary). Intensity of the bands was determined using ImageJ 1.42q (NIH, USA) and normalized to Actin (loading control).
(§3) Results: The results are provided below as IC50 values in Table 6.

Akt [3] = assay: Inhibition of Akt phosphorylation in NCI-H441 cells (Western blot); assay type: cell-based; conditions: Homo sapiens, Table 6, 0-1000 nM
Experimental: as §1, §2, §3

MKN-45 cells = assay: Induction of apoptosis in MKN-45 cells (caspase-3 activity); assay type: cell-based, human; conditions: percentage induction @ 3 μM; caspase-3, MKN-45 cells, 24 h; percent of maximum response
Experimental: 7. Induction of Apoptosis in MKN-45 Cells: I
Induction of Caspase 3 was measured fluorimetrically. Cells were incubated with desired concentrations of the compound for 24 h. After incubation, cells were harvested and counted. An equal number of viable cells per well (0.3×10^6 cells) were used for determination of caspase-3 activity. Increase in apoptosis manifested by an elevation in caspase-3 levels was determined using a Caspase-3 kit from Millipore. Data are expressed as a percent of the maximum response (100%).
Results: The results are provided below as percentage induction @ 3 μM in Table 7.

MDA-MB-231 cells = assay: Inhibition of HGF-induced cell proliferation in MDA-MB-231 cells (MTT); assay type: cell-based; conditions: Homo sapiens, Table 8, HGF (50 ng/ml)
Experimental: 8. Inhibition of HGF-Induced Met Phosphorylation in MDA-MB-231 Cells:
MDA-MB-231 is a breast cancer cell line having a high level of c-Met expression. Activation of Met kinase in these cells occurs only after the addition of its natural ligand, Hepatocyte Growth Factor (HGF). Upon binding to the extracellular domain of the enzyme, it triggers phosphorylation of tyrosine residues and regulates several downstream events such as cell proliferation. Cell proliferation assays were carried out using the high Met expressing cell line (MDA-MB-231) according to the following schedule: • Day 1: Cells were plated in 96-well plates in complete growth medium. • Day 2: Media was replaced with starvation medium containing 0.04% BSA. • Day 3: Inhibitors at the desired concentrations and HGF (50 ng/ml) were added. • Day 5: Cell viability was determined using the 3-[4,5-dimethylthiazol-2-yl]-2,5-diphenyltetrazolium bromide (MTT) dye reduction test. […] Results: The results are provided below in Table 8 as IC50 values.

[4] = biological target: T2, human recombinant Met kinase (Homo sapiens, UniProt P08581); assay: Colorimetric determination of c-Met kinase activity (HTScan Met Kinase Assay Kit); assay type: biochemical; conditions: read-out: c-Met Enzyme IC50
T2 construct: purchased Cell Signalling Technology, Beverly, Mass

c-Met kinase [5] = biological target: T1, c-Met kinase; assay: Inhibition of c-Met kinase phosphorylation in MKN-45 cells (cell based ELISA); design: endogenous in cells; host or cells: MKN-45; conditions: Table 4D, 1 h incubation
Experimental: MKN45 cells are a prototype of “c-Met addicted” cells having constitutively activated c-Met kinase similar to that observed in sub-sects of gastric or hepatocellular cancer patients with dysregulated c-Met kinase activity. Inhibition of Met phosphorylation was determined using a cell based ELISA assay according to the following schedule: • Day 1: MKN-45 cells were plated in 96-well plates in complete growth medium. • Day 2: Inhibitors at the desired concentration were added to the plates and incubated for 1 h and lysed subsequently. Lysates were transferred to NUNC Maxisorp plates coated with anti-cMet receptor antibody. Phopho-tyrosine mAb and HRP-lined anti-mouse IgG were used as primary and secondary antibodies respectively. Optical density was measured on a microplate reader (BMG Labtech., Germany) at […]. Inhibition of c-Met phosphorylation in this cell line indicates a therapeutic potential for test compounds in patients diagnosed with cancers caused by aberrant c-Met kinase signalling. Results: The results are provided above in Table 4D as IC50 values.

[6] = biological target: T2, human recombinant Met kinase; assay: Colorimetric determination of c-Met kinase activity (HTScan Met Kinase Assay Kit); assay type: biochemical; conditions: Table 4A; 100 nM (cells without *); read-out: c-Met Enzyme % inhibition @ 100 nM
Summary of the method: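 Human recombinant Met kinase was preincubated with compound for 5 min at room temperature, then reacted with ATP and biotinylated peptide for 30 min; EDTA stop. Phosphopeptide captured on streptavidin and detected with phospho-tyrosine mAb and europium anti-mouse IgG by time-resolved fluorescence (340/615 nm). Reported as % inhibition or IC50.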

T1 sequence (P08581 25-1390): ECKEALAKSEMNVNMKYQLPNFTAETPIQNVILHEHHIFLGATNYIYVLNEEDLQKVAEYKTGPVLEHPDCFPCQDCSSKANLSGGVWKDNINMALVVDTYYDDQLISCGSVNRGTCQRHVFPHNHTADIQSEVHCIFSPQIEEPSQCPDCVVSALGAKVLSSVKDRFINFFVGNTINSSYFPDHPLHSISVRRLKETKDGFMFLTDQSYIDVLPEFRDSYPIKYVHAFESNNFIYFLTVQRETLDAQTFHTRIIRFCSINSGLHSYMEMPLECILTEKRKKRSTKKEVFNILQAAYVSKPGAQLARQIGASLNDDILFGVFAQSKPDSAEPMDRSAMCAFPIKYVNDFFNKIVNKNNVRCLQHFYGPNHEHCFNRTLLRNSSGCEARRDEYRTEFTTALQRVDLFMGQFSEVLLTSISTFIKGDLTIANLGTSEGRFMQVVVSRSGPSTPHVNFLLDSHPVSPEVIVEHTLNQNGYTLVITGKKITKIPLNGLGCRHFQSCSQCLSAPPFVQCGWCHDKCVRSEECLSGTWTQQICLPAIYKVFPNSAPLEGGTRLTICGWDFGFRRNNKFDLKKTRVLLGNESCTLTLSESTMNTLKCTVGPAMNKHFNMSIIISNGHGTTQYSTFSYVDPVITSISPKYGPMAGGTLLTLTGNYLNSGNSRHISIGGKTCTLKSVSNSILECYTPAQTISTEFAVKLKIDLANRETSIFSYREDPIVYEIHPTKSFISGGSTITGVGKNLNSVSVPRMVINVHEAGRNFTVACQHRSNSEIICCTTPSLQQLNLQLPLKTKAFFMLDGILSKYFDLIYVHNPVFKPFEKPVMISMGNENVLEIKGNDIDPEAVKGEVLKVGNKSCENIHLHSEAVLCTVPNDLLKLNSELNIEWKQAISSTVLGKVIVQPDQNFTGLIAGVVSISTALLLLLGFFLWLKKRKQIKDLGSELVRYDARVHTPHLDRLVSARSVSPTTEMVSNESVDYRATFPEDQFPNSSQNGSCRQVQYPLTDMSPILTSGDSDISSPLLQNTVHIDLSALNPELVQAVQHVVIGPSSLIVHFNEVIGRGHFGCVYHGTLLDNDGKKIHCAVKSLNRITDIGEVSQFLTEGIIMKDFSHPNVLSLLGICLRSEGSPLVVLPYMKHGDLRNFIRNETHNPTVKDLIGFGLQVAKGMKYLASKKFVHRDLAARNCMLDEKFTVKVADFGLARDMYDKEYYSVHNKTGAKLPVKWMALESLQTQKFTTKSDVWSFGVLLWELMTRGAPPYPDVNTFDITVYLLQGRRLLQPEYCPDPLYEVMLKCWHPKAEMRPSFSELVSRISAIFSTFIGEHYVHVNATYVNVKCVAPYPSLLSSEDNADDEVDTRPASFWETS
T2 sequence (P08581 25-1390): as above

Row | SMILES | GI50 (MKN-45; MKN-45, Table 4A) [nM] | IC50 (c-Met kinase [1]) [nM] | IC50 (Akt [2]) [nM] | IC50 (Akt [3]) [nM] | IC50 (MDA-MB-231 cells) [nM] | IC50 ([4]; Table 4A) [nM] | IC50 (c-Met kinase [5]) [nM] | inhibition at 0.1 µM [6] [%] | GI50 (MKN-45; MKN-45, Table 4C) [nM] | IC50 ([4]; Table 4C) [nM] | inhibition at 0.1 µM (MKN-45; MKN-45, Table 4A, 100 nM) [%] | % induction of caspase-3 activity (MKN-45 cells) | MKN45 % inhibition @ 100 nM (MKN-45; Table 4A, 100 nM, 0.1 µM) | inhibition at 0.1 µM (MKN-45; MKN-45, Table 4C, 100 nM) [%]
1 | O=C(NOCCO)c1ccc(-c2ccc3nnn(Cc4cc5cccnc5cc4F)c3n2)cc1Cl [Example 7, 2-chloro-4-(3-((7-fluoroquinolin-6-yl)methyl)-3H-[1,2,3]triazolo[4,5-b]pyridin-5-yl)-N-(2-hydroxyethoxy)benzamide] | 25 to 50 | ≤ 10 | ≤ 10 | ≤ 10 | – | 25 to 50 | ≤ 10 | 75 to 100 | – | – | 75 to 100 | A (A is ≧75) | – | –
2 | O=C(NOCCO)c1c(F)cc(-c2ccc3nnn(Cc4ccc5ncccc5c4)c3n2)cc1F [Example 8, 2,6-difluoro-N-(2-hydroxyethoxy)-4-(3-(quinolin-6-ylmethyl)-3H-[1,2,3]triazolo[4,5-b]pyridin-5-yl)benzamide] | 50 to 100 | 25 to 50 | 50 to 250 | ≤ 10 | – | 25 to 50 | 50 to 500 | 75 to 100 | – | – | 25 to 50 | C (C is <50 and ≧25) | – | –
3 | O=C(NOCCO)c1c(F)cc(-c2ccc3nnn(Cc4cc5cccnc5cc4F)c3n2)cc1F [Example 9, 2,6-difluoro-4-(3-((7-fluoroquinolin-6-yl)methyl)-3H-[1,2,3]triazolo[4,5-b]pyridin-5-yl)-N-(2-hydroxyethoxy)benzamide] | 50 to 100 | 10 to 25 | 50 to 250 | 10 to 25 | – | 25 to 50 | 25 to 50 | 75 to 100 | – | – | 75 to 100 | A (A is ≧75) | – | –
4 | NC(=O)c1c(F)cc(-c2ccc3nnn(Cc4ccc5ncsc5c4)c3n2)cc1F [Example 1006, 4-(3-(benzo[d]thiazol-6-ylmethyl)-3H-[1,2,3]triazolo[4,5-b]pyridin-5-yl)-2,6-difluorobenzamide] | – | ≤ 10 | 25 to 50 | ≤ 10 | 10 to 50 | – | 25 to 50 | – | 25 to 50 | 25 to 50 | – | B (B is <75 and ≧50) | – | 75 to 100

More lines, main results first:

Row | GI50 (MKN-45; MKN-45, Table 4A) [nM] | IC50 (c-Met kinase [1]) [nM] | IC50 (Akt [2]) [nM] | IC50 (Akt [3]) [nM] | IC50 (MDA-MB-231 cells) [nM] | IC50 ([4]; Table 4A) [nM] | IC50 (c-Met kinase [5]) [nM] | inhibition at 0.1 µM [6] [%] | GI50 (MKN-45; MKN-45, Table 4C) [nM] | IC50 ([4]; Table 4C) [nM] | SMILES | inhibition at 0.1 µM (MKN-45; MKN-45, Table 4A, 100 nM) [%] | % induction of caspase-3 activity (MKN-45 cells) | MKN45 % inhibition @ 100 nM (MKN-45; Table 4A, 100 nM, 0.1 µM) | inhibition at 0.1 µM (MKN-45; MKN-45, Table 4C, 100 nM) [%]
5 | 25 to 50 | ≤ 10 | 10 to 25 | ≤ 10 | < 10 | 25 to 50 | 25 to 50 | – | – | – | O=C(NOCCO)c1ccc(-c2ccc3nnn(Cc4ccc5ncccc5c4)c3n2)cc1Cl [Example 6, 2-chloro-N-(2-hydroxyethoxy)-4-(3-(quinolin-6-ylmethyl)-3H-[1,2,3]triazolo[4,5-b]pyridin-5-yl)benzamide] | 75 to 100 | B (B is <75 and ≧50) | – | –
6 | 25 to 50 | ≤ 10 | 10 to 25 | ≤ 10 | < 10 | 25 to 50 | 25 to 50 | 75 to 100 | – | – | Cc1cc(-c2ccc3nnn(Cc4ccc5ncccc5c4)c3n2)ccc1C(=O)NOCCO [Example 25, N-(2-hydroxyethoxy)-2-methyl-4-(3-(quinolin-6-ylmethyl)-3H-[1,2,3]triazolo[4,5-b]pyridin-5-yl)benzamide] | – | B (B is <75 and ≧50) | A (A= ≧75 to 100%) | –
7 | 25 to 50 | 10 to 25 | 25 to 50 | ≤ 10 | < 10 | 25 to 50 | 25 to 50 | 75 to 100 | – | – | CC(C)(O)CONC(=O)c1ccc(-c2ccc3nnn(Cc4ccc5ncccc5c4)c3n2)cc1Cl [Example 30, 2-chloro-N-(2-hydroxy-2-methylpropoxy)-4-(3-(quinolin-6-ylmethyl)-3H-[1,2,3]triazolo[4,5-b]pyridin-5-yl) benzamide] | 75 to 100 | B (B is <75 and ≧50) | – | –
8 | 25 to 50 | – | – | – | – | 25 to 50 | ≤ 10 | 75 to 100 | – | – | C[C@@H](O)CONC(=O)c1ccc(-c2ccc3nnn(Cc4ccc5ncccc5c4)c3n2)cc1Cl [Example 32, (R)-2-chloro-N-(2-hydroxypropoxy)-4-(3-(quinolin-6-ylmethyl)-3H-[1,2,3]triazolo[4,5-b]pyridin-5-yl) benzamide] | 75 to 100 | – | – | –
9 | – | ≤ 10 | 25 to 50 | ≤ 10 | 10 to 50 | – | 10 to 25 | 75 to 100 | – | – | Cc1cc(-c2ccc3nnn(Cc4ccc5ncccc5c4)c3n2)ccc1C(=O)NOCC(C)(C)O [Example 33, N-(2-hydroxy-2-methylpropoxy)-2-methyl-4-(3-(quinolin-6-ylmethyl)-3H-[1,2,3]triazolo[4,5-b]pyridin-5-yl)benzamide] | – | A (A is ≧75) | – | –
